A short description of the series: physchem. The note with it: water, thermodynamic from solid. It is filed as physicochemical. Here is the method: Measurement of the water solubility of the test compounds is accomplished by using methods well known to those skilled in the art. Specifically, to a weighed amount of the test compound of the example compound Formula I (1-1) distilled water was added in small proportions until a clear solution was obtained. The total volume of the solution is measured. The water solubility is calculated by dividing the weight of the salt, in milligrams (mg), by the volume of the solution, in mL. […] The compound of Formula I (1-1) is therefore, at least 372 times more soluble in water than EPA itself. This is a clear indication of an unexpectedly high degree of bioavailability of the compositions of the invention. Highly water soluble medicinal preparations, when administered orally, result in efficient absorption from the gastrointestinal tract in to systemic circulation. Furthermore, water soluble preparations are especially suitable for parenteral administration.

Some results are limits rather than exact numbers.

A word on the solubility: it is how much of the substance goes into solution per volume. Low values mean little dissolved substance, high ones much dissolved substance. The compound `CC/C=C\C/C=C\C/C=C\C/C=C\C/C=C\CCCC(=O)O` [EPA, Eicosapentaenoic Acid] registered a solubility below 200 µg/mL.

The values above are taken from patent US20150148306A1, “COMPOSITIONS AND METHODS FOR THE TREATMENT OF INFLAMMATION” (priority 2012, published 2015).
